According to the kinase profiling compilation of Christmann-Franck et al. (2016):

Experiments:
Assay in all cases: Caliper, Mobility shift assay off-chip
ACVR1B (human) = ACVR1B (human) (UniProt P36896)
AXL (human) = AXL (human) (UniProt P30530)
CAMK1D (human) = CAMK1D (human) (UniProt Q8IU85)
CAMK2B (human) = CAMK2B (human) (UniProt Q13554)
CDC42BPA (human) = CDC42BPA (human) (UniProt Q5VT25)
CDK1 CCNB1 (human) = CDK1 CCNB1 (human) (UniProt P06493+P14635)
CDK2 CCNE1 (human) = CDK2 CCNE1 (human) (UniProt P24864+P24941)
CDK3 CCNE1 (human) = CDK3 CCNE1 (human) (UniProt P24864+Q00526)
CDK5 CDK5R1 p25 (human) = CDK5 CDK5R1 p25 (human) (UniProt Q15078+Q00535)
CDK6 CCND3 (human) = CDK6 CCND3 (human) (UniProt Q00534+P30281)
CHUK (human) = CHUK (human) (UniProt O15111)
CSNK1G1 (human) = CSNK1G1 (human) (UniProt Q9HCP0)
[1] = test system: FLT3 (human), P36888 [D835Y]
GCK (human) = GCK (human) (UniProt Q12851)
GSK3A (human) = GSK3A (human) (UniProt P49840)
GSK3B (human) = GSK3B (human) (UniProt P49841)
[2] = test system: KIT (human), P10721 [D816V]
[3] = test system: KIT (human), P10721 [V654A]
LYN (human) = LYN (human) (UniProt P07948)
MAP2K1 (human) = MAP2K1 (human) (UniProt Q02750)
MAPK9 (human) = MAPK9 (human) (UniProt P45984)
MARK2 (human) = MARK2 (human) (UniProt Q7KZI7)
MERTK (human) = MERTK (human) (UniProt Q12866)
MINK1 (human) = MINK1 (human) (UniProt Q8N4C8)
MST1R (human) = MST1R (human) (UniProt Q04912)
NTRK1 (human) = NTRK1 (human) (UniProt P04629)
PAK3 (human) = PAK3 (human) (UniProt O75914)
PASK (human) = PASK (human) (UniProt Q96RG2)
[4] = test system: PDGFRA (human), P16234 [D842V]
PIM3 (human) = PIM3 (human) (UniProt Q86V86)
PRKCQ (human) = PRKCQ (human) (UniProt Q04759)
PRKD1 (human) = PRKD1 (human) (UniProt Q15139)
PRKG1 (human) = PRKG1 (human) (UniProt Q13976)
RPS6KA4 KD1 KD2 (human) = RPS6KA4 KD1 KD2 (human) (UniProt O75676)
SRPK1 (human) = SRPK1 (human) (UniProt Q96SB4)
SRPK3 (human) = SRPK3 (human) (UniProt Q9UPE1)
STK10 (human) = STK10 (human) (UniProt O94804)
SYK (human) = SYK (human) (UniProt P43405)
TAOK3 (human) = TAOK3 (human) (UniProt Q9H2K8)
YES1 (human) = YES1 (human) (UniProt P07947)
YES1 (human), sequence (P07947 whole entry, looked up): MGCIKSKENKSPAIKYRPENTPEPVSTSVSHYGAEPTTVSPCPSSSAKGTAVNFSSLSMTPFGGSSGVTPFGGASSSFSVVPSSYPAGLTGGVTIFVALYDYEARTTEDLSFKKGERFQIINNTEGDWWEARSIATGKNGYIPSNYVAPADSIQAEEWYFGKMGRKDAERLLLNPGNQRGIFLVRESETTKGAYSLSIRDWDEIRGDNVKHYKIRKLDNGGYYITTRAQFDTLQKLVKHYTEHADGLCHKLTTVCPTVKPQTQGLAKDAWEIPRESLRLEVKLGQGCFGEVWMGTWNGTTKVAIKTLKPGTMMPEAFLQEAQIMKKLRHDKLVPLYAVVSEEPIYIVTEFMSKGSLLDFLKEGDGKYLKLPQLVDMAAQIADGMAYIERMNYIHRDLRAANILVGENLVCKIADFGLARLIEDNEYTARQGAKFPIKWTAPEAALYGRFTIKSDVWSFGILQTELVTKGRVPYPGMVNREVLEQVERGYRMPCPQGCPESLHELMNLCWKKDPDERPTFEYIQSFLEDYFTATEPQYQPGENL

PRKG1 (human), sequence (Q13976 whole entry, looked up): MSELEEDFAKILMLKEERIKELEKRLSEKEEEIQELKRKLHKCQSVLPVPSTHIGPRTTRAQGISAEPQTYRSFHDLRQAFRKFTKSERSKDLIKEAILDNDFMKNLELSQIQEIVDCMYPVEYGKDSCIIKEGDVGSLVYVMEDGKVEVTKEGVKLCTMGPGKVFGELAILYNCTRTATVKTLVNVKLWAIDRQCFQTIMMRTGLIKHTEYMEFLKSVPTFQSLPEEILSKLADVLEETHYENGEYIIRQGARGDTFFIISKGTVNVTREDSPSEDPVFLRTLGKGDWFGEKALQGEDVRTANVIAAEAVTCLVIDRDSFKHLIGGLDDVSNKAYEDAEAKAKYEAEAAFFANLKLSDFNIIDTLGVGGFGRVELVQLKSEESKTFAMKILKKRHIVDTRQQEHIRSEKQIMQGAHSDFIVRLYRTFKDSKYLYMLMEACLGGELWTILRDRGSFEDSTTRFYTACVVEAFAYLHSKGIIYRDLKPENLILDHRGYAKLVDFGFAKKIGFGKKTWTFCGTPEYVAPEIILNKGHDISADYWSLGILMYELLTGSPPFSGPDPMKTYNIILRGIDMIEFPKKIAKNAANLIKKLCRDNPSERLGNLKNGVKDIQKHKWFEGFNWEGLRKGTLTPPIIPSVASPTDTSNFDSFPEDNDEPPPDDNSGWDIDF
KIT (human), P10721 [D816V], sequence (P10721 whole entry D816V, looked up): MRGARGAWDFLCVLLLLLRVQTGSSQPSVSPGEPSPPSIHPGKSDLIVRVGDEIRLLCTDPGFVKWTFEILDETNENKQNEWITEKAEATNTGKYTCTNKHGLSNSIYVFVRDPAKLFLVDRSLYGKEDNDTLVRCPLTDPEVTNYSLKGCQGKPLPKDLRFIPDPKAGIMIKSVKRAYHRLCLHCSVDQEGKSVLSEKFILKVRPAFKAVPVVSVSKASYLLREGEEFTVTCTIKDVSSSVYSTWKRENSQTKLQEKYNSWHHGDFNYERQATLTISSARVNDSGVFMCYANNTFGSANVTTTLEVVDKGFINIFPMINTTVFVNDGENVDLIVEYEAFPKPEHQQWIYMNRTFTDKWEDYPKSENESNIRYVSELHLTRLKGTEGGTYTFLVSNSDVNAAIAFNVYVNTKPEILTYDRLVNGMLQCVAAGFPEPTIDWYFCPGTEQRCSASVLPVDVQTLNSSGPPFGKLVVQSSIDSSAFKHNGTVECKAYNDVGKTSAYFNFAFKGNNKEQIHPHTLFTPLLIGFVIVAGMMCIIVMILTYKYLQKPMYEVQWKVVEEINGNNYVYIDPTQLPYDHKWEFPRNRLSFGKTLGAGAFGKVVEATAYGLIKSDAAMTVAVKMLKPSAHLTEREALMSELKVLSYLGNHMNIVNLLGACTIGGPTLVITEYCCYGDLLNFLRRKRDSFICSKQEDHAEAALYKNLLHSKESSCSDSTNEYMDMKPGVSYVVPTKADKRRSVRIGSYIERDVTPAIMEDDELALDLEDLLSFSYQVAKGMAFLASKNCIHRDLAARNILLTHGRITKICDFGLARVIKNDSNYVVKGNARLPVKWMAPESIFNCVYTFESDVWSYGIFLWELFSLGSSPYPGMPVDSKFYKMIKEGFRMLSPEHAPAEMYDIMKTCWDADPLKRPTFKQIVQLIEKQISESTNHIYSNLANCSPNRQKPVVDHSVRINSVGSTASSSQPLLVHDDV
CHUK (human), sequence (O15111 whole entry, looked up): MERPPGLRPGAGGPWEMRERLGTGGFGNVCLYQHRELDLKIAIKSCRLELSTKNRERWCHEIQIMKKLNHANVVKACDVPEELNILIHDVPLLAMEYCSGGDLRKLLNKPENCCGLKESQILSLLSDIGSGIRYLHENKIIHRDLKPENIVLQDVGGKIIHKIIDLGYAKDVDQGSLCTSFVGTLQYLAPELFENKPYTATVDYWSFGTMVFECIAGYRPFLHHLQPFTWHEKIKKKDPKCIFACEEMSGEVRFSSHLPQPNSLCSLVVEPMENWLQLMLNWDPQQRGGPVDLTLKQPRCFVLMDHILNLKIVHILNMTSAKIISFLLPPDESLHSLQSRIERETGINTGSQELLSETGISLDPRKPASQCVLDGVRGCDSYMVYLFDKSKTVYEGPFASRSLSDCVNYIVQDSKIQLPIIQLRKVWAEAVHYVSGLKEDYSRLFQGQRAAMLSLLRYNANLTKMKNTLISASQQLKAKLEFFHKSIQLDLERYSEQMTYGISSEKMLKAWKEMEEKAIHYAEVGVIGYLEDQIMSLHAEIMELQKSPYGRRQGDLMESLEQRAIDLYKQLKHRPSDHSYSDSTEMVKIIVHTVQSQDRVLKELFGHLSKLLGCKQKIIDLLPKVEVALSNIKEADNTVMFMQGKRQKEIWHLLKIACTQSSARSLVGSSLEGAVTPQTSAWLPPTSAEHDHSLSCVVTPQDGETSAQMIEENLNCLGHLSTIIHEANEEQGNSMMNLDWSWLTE
SRPK1 (human), sequence (Q96SB4 whole entry, looked up): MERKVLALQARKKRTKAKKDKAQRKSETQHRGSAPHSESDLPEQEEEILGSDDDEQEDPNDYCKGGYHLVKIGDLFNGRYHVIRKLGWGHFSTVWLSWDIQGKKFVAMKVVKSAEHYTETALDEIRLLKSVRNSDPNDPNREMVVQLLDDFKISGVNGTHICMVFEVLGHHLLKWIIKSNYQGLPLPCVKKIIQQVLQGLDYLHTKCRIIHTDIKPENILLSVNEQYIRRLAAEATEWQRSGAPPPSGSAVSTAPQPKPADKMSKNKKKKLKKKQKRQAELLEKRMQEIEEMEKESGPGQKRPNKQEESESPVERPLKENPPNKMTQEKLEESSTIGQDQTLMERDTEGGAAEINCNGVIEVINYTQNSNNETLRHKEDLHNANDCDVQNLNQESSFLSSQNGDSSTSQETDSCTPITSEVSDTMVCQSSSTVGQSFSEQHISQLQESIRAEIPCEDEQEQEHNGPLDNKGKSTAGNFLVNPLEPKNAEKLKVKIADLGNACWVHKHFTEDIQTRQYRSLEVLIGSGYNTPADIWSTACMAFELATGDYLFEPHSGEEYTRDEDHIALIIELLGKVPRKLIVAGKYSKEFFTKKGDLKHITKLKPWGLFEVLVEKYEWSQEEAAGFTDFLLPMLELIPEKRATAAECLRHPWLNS
GSK3A (human), sequence (P49840 whole entry, looked up): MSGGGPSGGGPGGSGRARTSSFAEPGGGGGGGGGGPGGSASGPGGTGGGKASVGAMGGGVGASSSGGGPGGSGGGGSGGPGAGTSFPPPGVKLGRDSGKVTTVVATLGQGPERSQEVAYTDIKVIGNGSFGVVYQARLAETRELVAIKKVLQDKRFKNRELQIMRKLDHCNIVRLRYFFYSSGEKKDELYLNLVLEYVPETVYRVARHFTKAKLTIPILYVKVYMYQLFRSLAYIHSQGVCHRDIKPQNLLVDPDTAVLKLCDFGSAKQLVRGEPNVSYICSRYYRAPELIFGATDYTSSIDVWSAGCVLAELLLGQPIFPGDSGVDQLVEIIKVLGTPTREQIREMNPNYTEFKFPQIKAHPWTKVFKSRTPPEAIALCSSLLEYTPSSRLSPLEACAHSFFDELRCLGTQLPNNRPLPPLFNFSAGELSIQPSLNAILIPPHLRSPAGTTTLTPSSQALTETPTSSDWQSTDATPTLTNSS
CDK6 CCND3 (human), sequence (P30281 whole entry, looked up): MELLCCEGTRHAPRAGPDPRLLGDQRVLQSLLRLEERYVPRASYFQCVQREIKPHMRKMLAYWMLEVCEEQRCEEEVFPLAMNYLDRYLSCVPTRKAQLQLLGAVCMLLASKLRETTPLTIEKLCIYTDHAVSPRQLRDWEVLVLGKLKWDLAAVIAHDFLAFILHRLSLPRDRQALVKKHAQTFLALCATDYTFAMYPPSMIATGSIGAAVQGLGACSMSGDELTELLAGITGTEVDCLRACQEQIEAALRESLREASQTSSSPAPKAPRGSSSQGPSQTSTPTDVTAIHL
CDK6 CCND3 (human), sequence (Q00534 whole entry, looked up): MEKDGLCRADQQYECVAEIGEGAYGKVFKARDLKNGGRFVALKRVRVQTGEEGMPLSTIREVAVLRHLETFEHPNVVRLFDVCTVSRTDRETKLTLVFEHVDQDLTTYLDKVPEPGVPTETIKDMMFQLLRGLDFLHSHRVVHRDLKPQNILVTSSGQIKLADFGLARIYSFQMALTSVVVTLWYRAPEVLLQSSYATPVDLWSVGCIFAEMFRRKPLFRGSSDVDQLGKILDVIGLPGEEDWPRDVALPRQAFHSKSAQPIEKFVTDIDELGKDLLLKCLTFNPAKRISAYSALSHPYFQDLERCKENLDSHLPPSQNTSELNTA
KIT (human), P10721 [V654A], sequence (P10721 whole entry V654A, looked up): as the sequence (P10721 whole entry D816V, looked up) above, with V654A, V816D counted along it

`O=C(N[C@@H](COc1ccc2[nH]c(=O)[nH]c2c1)c1ccccc1)c1cccn(Cc2ccc(F)c(F)c2)c1=O` gave a residual activity (ACVR1B (human); compound 10.0 µM) of 115%, a residual activity (AXL (human); compound 10.0 µM) of 107% and a residual activity (CAMK1D (human); compound 10.0 µM) of 95%. The residual activity (CAMK2B (human); compound 10.0 µM) was 105%, the residual activity (CDC42BPA (human); compound 10.0 µM) was 101% and the residual activity (CDK1 CCNB1 (human); compound 10.0 µM) was 111%. The residual activity (CDK2 CCNE1 (human); compound 10.0 µM) was 104%, the residual activity (CDK3 CCNE1 (human); compound 10.0 µM) was 113% and the residual activity (CDK5 CDK5R1 p25 (human); compound 10.0 µM) was 111%. It also gave a residual activity (CDK6 CCND3 (human); compound 10.0 µM) of 102%, a residual activity (CHUK (human); compound 10.0 µM) of 125% and a residual activity (CSNK1G1 (human); compound 10.0 µM) of 102%. The residual activity ([1]; compound 10.0 µM) was 99%, the residual activity (GCK (human); compound 10.0 µM) was 107% and the residual activity (GSK3A (human); compound 10.0 µM) was 102%. It also gave a residual activity (GSK3B (human); compound 10.0 µM) of 92%, a residual activity ([2]; compound 10.0 µM) of 111% and a residual activity ([3]; compound 10.0 µM) of 102%. It also gave a residual activity (LYN (human); compound 10.0 µM) of 115%, a residual activity (MAP2K1 (human); compound 10.0 µM) of 102% and a residual activity (MAPK9 (human); compound 10.0 µM) of 100%. For the same compound, the residual activity (MARK2 (human); compound 10.0 µM) was 96%, the residual activity (MERTK (human); compound 10.0 µM) was 95% and the residual activity (MINK1 (human); compound 10.0 µM) was 113%. For the same compound, the residual activity (MST1R (human); compound 10.0 µM) was 82%, the residual activity (NTRK1 (human); compound 10.0 µM) was 108% and the residual activity (PAK3 (human); compound 10.0 µM) was 88%. The residual activity (PASK (human); compound 10.0 µM) was 111%, the residual activity ([4]; compound 10.0 µM) was 108% and the residual activity (PIM3 (human); compound 10.0 µM) was 97%. It also gave a residual activity (PRKCQ (human); compound 10.0 µM) of 108%, a residual activity (PRKD1 (human); compound 10.0 µM) of 100% and a residual activity (PRKG1 (human); compound 10.0 µM) of 111%. For the same compound, the residual activity (RPS6KA4 KD1 KD2 (human); compound 10.0 µM) was 106%, the residual activity (SRPK1 (human); compound 10.0 µM) was 104% and the residual activity (SRPK3 (human); compound 10.0 µM) was 114%. It also gave a residual activity (STK10 (human); compound 10.0 µM) of 113%, a residual activity (SYK (human); compound 10.0 µM) of 102% and a residual activity (TAOK3 (human); compound 10.0 µM) of 98%. The residual activity (YES1 (human); compound 10.0 µM) was 91%.

`C[C@@H](Nc1nc2c(C#CC3CC3)c[nH]c(=O)c2c2cc(-c3cn[nH]c3)ccc12)C(C)(C)C` was tested, and the residual activity (ACVR1B (human); compound 1.0 µM) was 93%, the residual activity (AXL (human); compound 1.0 µM) was 18% and the residual activity (CAMK1D (human); compound 1.0 µM) was 55%. For the same compound, the residual activity (CAMK2B (human); compound 1.0 µM) was 78%, the residual activity (CDC42BPA (human); compound 1.0 µM) was 111% and the residual activity (CDK1 CCNB1 (human); compound 1.0 µM) was 100%. The residual activity (CDK2 CCNE1 (human); compound 1.0 µM) was 116%, the residual activity (CDK3 CCNE1 (human); compound 1.0 µM) was 106% and the residual activity (CDK5 CDK5R1 p25 (human); compound 1.0 µM) was 104%. It also gave a residual activity (CDK6 CCND3 (human); compound 1.0 µM) of 102%, a residual activity (CHUK (human); compound 1.0 µM) of 102% and a residual activity (CSNK1G1 (human); compound 1.0 µM) of 97%. For the same compound, the residual activity ([1]; compound 1.0 µM) was 9%, the residual activity (GCK (human); compound 1.0 µM) was 44% and the residual activity (GSK3A (human); compound 1.0 µM) was 107%. The residual activity (GSK3B (human); compound 1.0 µM) was 82%, the residual activity ([2]; compound 1.0 µM) was 93% and the residual activity ([3]; compound 1.0 µM) was 46%. It also gave a residual activity (LYN (human); compound 1.0 µM) of 72%, a residual activity (MAP2K1 (human); compound 1.0 µM) of 96% and a residual activity (MAPK9 (human); compound 1.0 µM) of 116%. For the same compound, the residual activity (MARK2 (human); compound 1.0 µM) was 87%, the residual activity (MERTK (human); compound 1.0 µM) was 8% and the residual activity (MINK1 (human); compound 1.0 µM) was 117%. For the same compound, the residual activity (MST1R (human); compound 1.0 µM) was 98%, the residual activity (NTRK1 (human); compound 1.0 µM) was 10% and the residual activity (PAK3 (human); compound 1.0 µM) was 78%. It also gave a residual activity (PASK (human); compound 1.0 µM) of 109%, a residual activity ([4]; compound 1.0 µM) of 1% and a residual activity (PIM3 (human); compound 1.0 µM) of 96%. It also gave a residual activity (PRKCQ (human); compound 1.0 µM) of 78%, a residual activity (PRKD1 (human); compound 1.0 µM) of 86% and a residual activity (PRKG1 (human); compound 1.0 µM) of 97%. The residual activity (RPS6KA4 KD1 KD2 (human); compound 1.0 µM) was 61%, the residual activity (SRPK1 (human); compound 1.0 µM) was 104% and the residual activity (SRPK3 (human); compound 1.0 µM) was 115%. The residual activity (STK10 (human); compound 1.0 µM) was 25%, the residual activity (SYK (human); compound 1.0 µM) was 105% and the residual activity (TAOK3 (human); compound 1.0 µM) was 104%. The residual activity (YES1 (human); compound 1.0 µM) was 63%.

In the case of `CC(C)(C)c1nc2c3ccc(F)cc3c3c(=O)[nH]ccc3c2[nH]1`, the residual activity (MERTK (human); compound 10.0 µM) is reported as 28%.

For `Cc1n[nH]c2c1c(=O)n(CCCN)c1ccc(Cl)cc21`, the residual activity (ACVR1B (human); compound 1.0 µM) was 138%, the residual activity (AXL (human); compound 1.0 µM) was 96% and the residual activity (CDK1 CCNB1 (human); compound 1.0 µM) was 183%. The residual activity (CDK3 CCNE1 (human); compound 1.0 µM) was 96%, the residual activity (CDK5 CDK5R1 p25 (human); compound 1.0 µM) was 108% and the residual activity (CDK6 CCND3 (human); compound 1.0 µM) was 106%. For the same compound, the residual activity (CHUK (human); compound 1.0 µM) was 96%, the residual activity ([1]; compound 1.0 µM) was 5% and the residual activity (GSK3A (human); compound 1.0 µM) was 107%. It also gave a residual activity (GSK3B (human); compound 1.0 µM) of 105%, a residual activity ([2]; compound 1.0 µM) of 107% and a residual activity (LYN (human); compound 1.0 µM) of 99%. It also gave a residual activity (MAP2K1 (human); compound 1.0 µM) of 97%, a residual activity (MAPK9 (human); compound 1.0 µM) of 95% and a residual activity (MARK2 (human); compound 1.0 µM) of 7%. It also gave a residual activity (MINK1 (human); compound 1.0 µM) of 134%, a residual activity (MST1R (human); compound 1.0 µM) of 107% and a residual activity (NTRK1 (human); compound 1.0 µM) of 46%. The residual activity (PRKCQ (human); compound 1.0 µM) was 98%, the residual activity (PRKD1 (human); compound 1.0 µM) was 20% and the residual activity (PRKG1 (human); compound 1.0 µM) was 95%. The residual activity (RPS6KA4 KD1 KD2 (human); compound 1.0 µM) was 43%, the residual activity (SRPK1 (human); compound 1.0 µM) was 106% and the residual activity (SRPK3 (human); compound 1.0 µM) was 90%. The residual activity (STK10 (human); compound 1.0 µM) was 81%, the residual activity (SYK (human); compound 1.0 µM) was 65% and the residual activity (YES1 (human); compound 1.0 µM) was 77%.
